{
  "source": "patent US20100331269A1",
  "about": "“TRITERPENES DERIVATIVES AND USES THEREOF AS ANTITUMOR AGENTS OR ANTI-INFLAMMATORY AGENTS” (priority 2006, published 2010)",
  "key": {"B16-F1 cells": {"system": "B16-F1 cells", "test": "Cytotoxicity, Hoechst DNA assay, B16-F1", "assay_type": "cell-based, mouse", "conditions": "± SD", "outline": "(§1)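 Cells grown at 37 °C, 5% CO2, in MEM with 10% FBS. Compound cytotoxicity was measured by Hoechst DNA staining. Activity is expressed as IC50, the concentration inhibiting 50% of cell growth.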"}, "[1]": {"test": "Toxicity of treatment by body weight of tumour-bearing mice", "conditions": "Lewis lung cancer-bearing mice, IP treatment, day 13", "from_the_text": "Individual dose were based on the body weight of each mouse."}, "[2]": {"system": "Hep G2 human hepatocellular carcinoma cells", "test": "Cytotoxicity, resazurin metabolism assay, Hep G2", "assay_type": "cell-based", "conditions": "mean ± SD", "from_the_text": "(§2) Human lung carcinoma (A-549), human colon adenocarcinoma (DLD-1), human normal fibroblasts (WS1), mice melanoma (B16-F1), Human glioma (U-251), Human hepatocellular carcinoma (HEP G2), Human prostate adenocarcinoma (PC-3), Human ovary teratocarcinoma metastatic (PA-1), Human breast adenocarcinona metastatic (MDA-MB-231), Human breast adenocarcinoma (MCF-7) and Human malignant melanoma (SK-MEL-2) cell lines were obtained from the American Type Culture Collection (ATCC). All cell lines were cultured in minimum essential medium containing Earle's salts and L-glutamine (Mediatech Cellgro, Va.), to which was added 10% fetal bovine serum (Hyclone), vitamins (1×), penicillin (100 I.U./mL) and streptomycin (100 μg/mL), essential amino acids (1×) and sodium pyruvate (1×) (Mediatech Cellgro, Va.). Cells were kept at 37° C. in a humidified environment containing 5% CO2.\n(§3) Exponentially growing cells were plated in 96-well microplates (Costar, Corning Inc.) at a density of 5×10^3 cells per well in 100 μL of culture medium and were allowed to adhere for 16 hours before treatment. Increasing concentrations of each compound in DMSO (Sigma-Aldrich) were then added (100 μL per well) and the cells were incubated for 48 h. […] Cytotoxicity was assessed using resazurin (O'Brien, J. et al., Eur. J. Biochem. 2000, 267, 5421-5426) on an automated 96-well Fluoroskan Ascent F1™ plate reader (Labsystems) using excitation and emission wavelengths of 530 nm and 590 nm, respectively. Fluorescence was proportional to the cellular metabolic activity in each well. Survival percentage was defined as the fluorescence in experimental wells compared to that in control wells after subtraction of blank values. Each experiment was carried out three times in triplicata. IC50 results were expressed as mean±standard deviation.\n(§4) Compounds presented in Table 5 below were also tested in the following tumour cell lines: U-251 (Human glioma), HEP G2 (Human hepatocellular carcinoma), PC-3 (Human prostate adenocarcinoma), PA-1 (Human ovary teratocarcinoma metastatic), MDA-MB-231 (Human breast adenocarcinona metastatic), MCF-7 (Human breast adenocarcinoma) and SK-MEL-2 (Human malignant melanoma)."}, "[3]": {"system": "SK-Mel-2 human melanoma cells", "test": "Cytotoxicity, resazurin metabolism assay, SK-Mel-2", "assay_type": "cell-based", "conditions": "mean ± SD", "from_the_text": "as §2, §3, §4"}, "Lewis lung carcinoma": {"system": "Lewis lung carcinoma", "test": "In vivo antitumoral activity against Lewis lung cancer-bearing mice", "parameters": "species or system C57BL/6 mouse", "conditions": "day 13", "procedure": "Cell lines and mice preparation: The Lewis lung carcinoma cell lines (#CRL-1642, lot # 4372266, ATCC) and the C57BL/6 mouse strain (Charles River Inc., St-Constant, Qc) were used. Cells were grown to 90% confluence in complete DMEM medium containing Earle's salts and L-glutamine (Mediatech Cellgro, Va.), 10% foetal bovine serum (Hyclone), vitamins (1×), penicillin (100 I.U./mL) and streptomycin (100 μg/mL), essential amino acids (1×) and sodium pyruvate (1×) (Mediatech Cellgro, Va.). Cells were then harvested with up and down only. Cells were counted using a hemacytometer and resuspended in DMEM medium without SVF. 100 μL of a solution containing 1×10^7 cells/mL was inoculated subcutaneously in the right flank of each 6 weeks old mouse on day zero.\nThe experimental mice were weighed daily.\nData analysis: In vivo antitumor activity was evaluated according to the parameters as follows (Miot-Noirault, E. et al. Invest. New Drugs 2004, 22, 369-378):\n(a) Calculated tumour weight (CTW): The CTW of each tumour was estimated from two-dimensional measurements performed once a day with a slide calliper, according to the formula: CTW (mg)=(L×W^2)/2 with L=length in mm and W=width in mm. Differences in CTW between treated and control groups (DMSO) were analyzed for significance using the U Wilcoxon-Mann-Whitney test and Student t-test. Values of p<0.05 were considered statistically significant.\n(b) Treated/Control value (T/C) and Tumour Growth Inhibition (TGI):The T/C was calculated as the ratio of the mean CTW of TW of drug-treated mice versus controls: T/C=(CTW of the drug-treated group on Day X/CTW of the control group on Day X)×100. TGI is 100−(T/C) value."}, "U-251 human glioma cells": {"system": "U-251 human glioma cells", "test": "Cytotoxicity, resazurin metabolism assay, U-251", "assay_type": "cell-based", "conditions": "mean ± SD", "from_the_text": "as §2, §3, §4"}, "[4]": {"system": "MCF-7 human breast adenocarcinoma cells", "test": "Cytotoxicity, resazurin metabolism assay, MCF-7", "assay_type": "cell-based", "conditions": "mean ± SD", "from_the_text": "as §2, §3, §4"}, "[5]": {"system": "PC-3 human prostate adenocarcinoma cells", "test": "Cytotoxicity, resazurin metabolism assay, PC-3", "assay_type": "cell-based", "conditions": "mean ± SD", "from_the_text": "as §2, §3, §4"}, "[6]": {"system": "DLD-1 human colorectal adenocarcinoma cells", "test": "Cytotoxicity, resazurin metabolism assay, DLD-1", "assay_type": "cell-based", "conditions": "48 h, mean ± SD", "outline": "(§5)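 Cells plated at 5×10^3/well, adhered 16 h, then exposed to increasing compound concentrations (DMSO) for 48 h. Viability by resazurin reduction, fluorescence ex 530/em 590 nm, blank-subtracted versus control wells; IC50 as mean±SD from three experiments in triplicate.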"}, "A-549 cells": {"system": "A-549 cells", "test": "Cytotoxicity, Hoechst DNA assay, A-549", "assay_type": "cell-based, human", "conditions": "± SD", "outline": "as §1"}, "[7]": {"system": "MDA-MB-231 human breast adenocarcinoma cells", "test": "Cytotoxicity, resazurin metabolism assay, MDA-MB-231", "assay_type": "cell-based", "conditions": "mean ± SD", "from_the_text": "as §2, §3, §4"}, "[8]": {"system": "A-549 human lung carcinoma cells", "test": "Cytotoxicity, resazurin metabolism assay, A-549", "assay_type": "cell-based", "conditions": "48 h, mean ± SD", "outline": "as §5"}, "[9]": {"system": "WS-1 human normal skin fibroblasts", "test": "Cytotoxicity, resazurin metabolism assay, WS-1", "assay_type": "cell-based", "conditions": "48 h, mean ± SD", "outline": "as §5"}},
  "note": "Marks after values point to notes of the source that are not given here.",
  "data": [
    {"smiles": "C=C(C)[C@@H]1CC[C@]2(C(=O)O)CC[C@]3(C)[C@H](CC[C@@H]4[C@@]5(C)CC[C@H](O[C@@H]6O[C@@H](C)[C@H](O)[C@@H](O)[C@H]6O)C(C)(C)[C@@H]5CC[C@]43C)[C@@H]12", "note": "[Compound 22, 3-O-α-L-Rhamnopyranoside of betulinic acid]", "values": [
      {"measurement": "IC50", "setting": "B16-F1 cells", "value": "4.2 ± 0.5", "unit": "µM"},
      {"measurement": "Toxicity / body weight loss compared with controls", "setting": "[1]", "value": "did not show any sign of toxicity or body weight loss"},
      {"measurement": "IC50", "setting": "[2]", "value": "20 ± 2", "unit": "µM"},
      {"measurement": "IC50", "setting": "[3]", "value": "20 ± 7", "unit": "µM"},
      {"measurement": "CTW (calculated tumour weight)", "setting": "Lewis lung carcinoma; 50 mg/kg IP every 3-4 days", "value": "297 ± 98", "unit": "mg"},
      {"measurement": "T/C (Treated/Control)", "setting": "Lewis lung carcinoma; 50 mg/kg IP", "value": 91, "unit": "%"},
      {"measurement": "TGI (Tumour Growth Inhibition)", "setting": "Lewis lung carcinoma; 50 mg/kg IP", "value": 9, "unit": "%"},
      {"measurement": "CTW (calculated tumour weight)", "setting": "Lewis lung carcinoma; 100 mg/kg IP every 3-4 days", "value": "178 ± 53^e mg"},
      {"measurement": "T/C (Treated/Control)", "setting": "Lewis lung carcinoma; 100 mg/kg IP", "value": 55, "unit": "%"},
      {"measurement": "TGI (Tumour Growth Inhibition)", "setting": "Lewis lung carcinoma; 100 mg/kg IP", "value": 45, "unit": "%"},
      {"measurement": "CTW (calculated tumour weight)", "setting": "Lewis lung carcinoma; 200 mg/kg IP every 3-4 days", "value": "192 ± 50^e mg"},
      {"measurement": "T/C (Treated/Control)", "setting": "Lewis lung carcinoma; 200 mg/kg IP", "value": 59, "unit": "%"},
      {"measurement": "TGI (Tumour Growth Inhibition)", "setting": "Lewis lung carcinoma; 200 mg/kg IP", "value": 41, "unit": "%"},
      {"measurement": "IC50", "setting": "U-251 human glioma cells", "value": "20 ± 2", "unit": "µM"},
      {"measurement": "IC50", "setting": "[4]", "value": "16 ± 2", "unit": "µM"},
      {"measurement": "IC50", "setting": "[5]", "value": "20 ± 6", "unit": "µM"},
      {"measurement": "IC50", "setting": "[6]", "value": "3.9 ± 0.4", "unit": "µM"},
      {"measurement": "IC50", "setting": "A-549 cells", "value": "2600 ± 300", "unit": "nM"},
      {"measurement": "IC50", "setting": "[7]", "value": "19 ± 2", "unit": "µM"},
      {"measurement": "IC50", "setting": "[8]", "value": "2600 ± 600", "unit": "nM"},
      {"measurement": "IC50", "setting": "[9]", "value": "31 ± 3", "unit": "µM"}
    ]}
  ]
}
